In EP0292365A2, “4-Amino-5,8-quinazolindione derivatives, process for their preparation and pharmaceutical compositions containing them” (CENTRE NATIONAL DE LA RECHERCHE SCIENTIFIQUE, priority 1987, dated 1988):
Like-named read-outs stand apart in the source and are kept apart here.

Legend:
[1] = Determination of toxicity (DLo), single intraperitoneal dose; type: in vivo; settings: voie intrapéritonéale, dose unique, souris Swiss, suivies pendant un mois
Source text: Ils sont tous administrés, par voie intrapéritonéale (ip), à des souris Swiss de 22 ± 2 g, à doses uniques exprimées en mg/kg de poids corporel. Les animaux sont suivis pendant un mois. La mortalité et les signes de toxicité sont relevés. On détermine ainsi la DLoqui sera la dose maximale utilisée pour la détermination de l'activité antitumorale.

[2] = system: Leucémie L1210; type: in vivo, souris DBA/2; settings: for survivants 30 jours / Δ P J1-J5 / T/C / Doses actives (T/C ≥ 125 %): L1210, greffe ip(10^5cel.); for T/C: survivants inclus
Source text: Afin de tester l'activité antitumorale des composés décrits plus haut, on a utilisé les leucémies murines P388 et L1210, ainsi que le mélanome murin B16. La leucémie P388 est considère comme très sensible et permet une première sélection. D'autre part, une substance ayant une grande activité sur la leucémie L1210 a une grande chance d'être active en clinique humaine (J.M. Venditti; Relevance of transplantable animal tumor systems to the Selection of new agents for clinical trial in pharmacological basis of cancer chemotherapy. The University of Texas ed. Williams and Wilkins, publ. 1975, Baltimore USA).
La leucémie L1210 de la souris est en effet couramment utilisée pour l'évaluation de tous les composés antitumoraux actuellement mis en oeuvre en thérapeutique humaine, ainsi qu'il est décrit, par exemple par C.C. Zubrod dans Proc. Nat. Acad. Sci. USA 69, 1972, p. 1042-1047. Le système tumoral ainsi constitué expérimentalement permet une évaluation quantitative très précise de l'activité du composé testé, et, par conséquent aussi, une comparaison objective entre les activités respectives de différents composés, par exemple selon les méthodes décrites par R. E. Skipper, F. M. Schabel, Jr. et W. S. Wilcox dans Cancer Chemother. Rep., 35, 1964, p. 1-111 et 45, 1965, p.5-28.
Cette étude a été réalisée sur 1, 2 ou 3 tumeurs murines expérimentales selon le schéma suivant :
Les produits en solution dans l'eau ou en suspension dans du Klucel sont administrés par voie intrapéritonéale 24 heures après la greffe des cellules tumorales (10 animaux par série), soit en injection unique (J1), soit pendant 9 jours consécutifs (Ji-9). Les morts sont relevés chaque jour à la même heure. La comparaison du temps médian de survie des souris témoins (C) et des souris traitées (T) permet d'apprécier l'activité antitumorale du produit. On adopte comme critère d'activité minimale la valeur de T/C supérieure ou égale à 125 % conformément aux critères établis par GERAN et par l'O.M.S. (Réf. GERAN R.I., GREENBERG N.H., MACDONALD M.M., SCHUMACHER A.M. and ABBOTT B.J. Protocols for screening chemical agents and natural products against animal tumors and other biological systems. Cancer Chemother. Rep. Part 3, 3, 1-103 (1972)).
Lorsque le composé est actif sur plusieurs tumeurs, son administration par d'autres voies que la voie intrapéritonéale (i.p.) est envisagée : orale (p.o) et intraveineuse (i.v). Les résultats des essais effectués à l'aide du composé 63 sont rassemblés dans le tableau IV ci-après.
Dans les tableaux IV et IV Bis, P représentent la variation de poids entre J1 et J5 des animaux traités; lorsque P est supérieure à environ 4 g, cela signifie que la dose à laquelle le composé a été testé est toxique.

[3] = ip J1-9, dose optimale 0,4 mg/kg/inj.
[4] = ip J1, dose optimale 2 mg/kg/inj.

CN(C)CCCNc1ncnc2c1C(=O)C(N1CC1)=C(N1CC1)C2=O [composé 63]
DLo [1]: ~3 mg/kg | survivants 30 jours [2, 3]: 1 | Δ P J1-J5 [2, 3]: -1,6 g | T/C [2, 3]: 174% | survivants 30 jours [2, 4]: 1 | Δ P J1-J5 [2, 4]: -2,8 g | T/C [2, 4]: 160% | Doses actives (T/C ≥ 125 %) ([2]; traitement ip J1): 0,25-2 mg/kg/inj. | Doses actives (T/C ≥ 125 %) ([2]; traitement ip J1-9): 0,03-0,8 mg/kg/inj. | activité sur la leucémie L1210 ([2]; summary): très efficace
